Reference: patent publication US11952338B2, “Anticonvulsant compounds” (OWEN-BARRY PHARMACEUTICALS INC., priority 2017, dated 2024)

How the values were obtained:
[1] = tested on: rodent model of traumatic brain injury/stress; experiment: rodent model of traumatic brain injury/stress; type: in vivo, rat
From the text: FIG. 6 is an electrographic record of activity from the amygdala of a rat which has undergone traumatic brain injury and has been stressed (tail pinch). […] After moderate traumatic brain injury under control conditions, stress induces epileptiform activity in the amygdala. This activity is shown on the left in FIG. 6, where a stressor induces increased activity. […] On the right in FIG. 6, it is evident that the compound of Example 1 prevents the induction of this response and is particularly effective in reducing high frequency activity (i.e. >250 Hz) that is considered to be epileptogenic. This electrophysiological response in the control traumatic brain injury rats was accompanied by stage 2 to 3 seizures (Racine scale: av. 2.0±0.5 n=6 rats). These behavioral responses were blocked in the traumatic brain injury rats treated with the compound of Example 1.

[2] = tested on: voltage-gated sodium channels; experiment: patch clamp electrophysiology on cultured cortical neurons; type: cell-based, rat; conditions: 100 μM
Procedure: In another assay, the inhibition by the example compounds on the activity of voltage-gated sodium channels is determined using patch clamp electrophysiology. This analysis is done on cultured cortical neurons isolated from rats. […] This was done by assessing the suppression of the voltage gated sodium channel activity 16 ms after a test pulse.
Under control conditions, recovery occurs at a rate of about 13 ms. In the presence of 100 μM of the compound of Example 1, recovery is slowed to a rate of about 26 ms, and recovery is substantially complete after about 50 ms. […] This is a desirable property for antiseizure compounds, as little or no block of normal function occurs, while reducing (epileptic) activity that occurs at high frequency.

[3] = detection in rat blood after oral or intravenous administration of Example 1; type: in vivo; conditions: for detection in blood: rats dosed with Example 1 orally or by vein injection, over 24 hours
Procedure: FIG. 7 is a graph showing the detection of the compounds of Example 1 and Example 2 in rat blood after oral or intravenous administration of the compound of Example 1.
FIG. 8 is a graph showing the time it takes for the compound of Example 1 to be converted in vivo to the compound of Example 2.
All rats were dosed with the compound of Example 1 either orally or by vein injection.

[4] = tested on: isolated rat brain slices; experiment: voltage sensitive dye imaging of electrically stimulated brain slices; type: cell-based
Procedure: The compounds described in the above examples display activity in in vitro and in vivo assays that track brain electrical activity. A first assay is conducted using voltage sensitive dye imaging. This is done on isolated rat brain slices kept viable in artificial cerebral spinal fluid (ACSF). Electrically stimulating the slice activates the neural assemblies therein. A voltage sensitive dye, such as, di-4-ANEPPS, is incubated with a brain slice for 1 hour in a suitable solution that enhances the dye penetration into the tissue. The dye reacts to changes in voltage across the cell membrane of the neurons in the brain slice. The example compounds are added to the ACSF at known concentration between 50 and 200 nM. The brain slices are then subjected to an electrical stimulus that activates the neurons in the slice. As the dye reacts to the change in voltage, which can be observed and quantified, the degree to which activation of the brain is dampened by the presence of the example compound is evaluated.

[5] = tested on: rodent kindling model of epilepsy (partial complex seizures); experiment: amygdala kindling model of epilepsy; type: in vivo, rat; conditions: 20 mg/kg
Procedure: FIG. 4 is a summary of data showing the prevention, by the compound of Example 1 at a dose of 20 mg/kg, of stage 5 seizures in an animal model of partial complex seizures, using the amygdala kindling model of epilepsy. FIG. 5 is a graph showing that the pre-treatment of rats (20 mg/kg) undergoing the amygdala kindling procedure prevents the development of stage 5 seizures. […] This model produces partial complex seizures that are similar to temporal lobe seizures experienced by humans. […] Therefore, compounds according to the present invention, including preferably the compound of Example 1, may be used in prophylactic treatment or prevention of epileptogenesis.

[6] = stability in human plasma; type: in vitro ADME; conditions: human plasma dosed with Example 1
From the text: FIG. 9 is a graph showing the stability of the compound of Example 2 in human plasma once converted from the compound of Example 1.

SMILES | induction of seizure (epileptiform) activity in the amygdala by stress ([1]; after moderate traumatic brain injury, tail pinch) | behavioral responses (stage 2 to 3 seizures, Racine scale) ([1]; traumatic brain injury rats) | recovery from inactivation [2] [%] | time after which recovery is substantially complete [2] | rate of recovery of sodium channel inactivation ([2]; control about 13 ms) | time course of conversion of Example 1 to Example 2 ([3]; rats dosed with 20 mg/kg of Example 1) | detection in blood [3] | effect on amplitude and duration of the response [4] | suppression of activation of the brain slice activity ([4]; 50 nM) [%] | suppression of activation of the brain slice activity ([4]; 200 nM) [%] | reduction of activity ([4]; 60 pulses/second) [%] | activity at low stimulation frequency ([4]; stimulation frequency of 20 pulses/second) | stage 5 seizures ([5]; oral administration) | development of epileptic seizures ([5]; prior prophylactic dosing) | stability in human plasma [6]
COC(=O)c1ccc(C2=CC(=O)CC(C)(C)C2)cc1 [Example 1, Methyl 3′,3′-dimethyl-5′-oxo-2′,3′,4′,5′-tetrahydro-[1,1′-biphenyl]-4-carboxylate] | prevents the induction of seizure activity | blocked | 100 | about 50 ms | about 26 ms | substantially complete within one hour | only detectable as the free acid | reduced both amplitude and duration of the response | 29±5 | 48±5 | 48 | little or no activity | prevents stage 5 seizures from occurring | prevents the onset of seizures | 
CC1(C)CC(=O)C=C(c2ccc(C(=O)O)cc2)C1 [Example 2, 3′,3′-Dimethyl-5′-oxo-2′,3′,4′,5′-tetrahydro-[1,1′-biphenyl]-4-carboxylic acid] |  |  |  |  |  |  | the only molecule detected in significant quantities |  |  |  |  |  |  |  | stable and is not further converted to another molecule
